pEC50, pIC50: −log10 of the molar value.
Legend:
[1] = molecular target: 5-hydroxytryptamine receptor 1A (Homo sapiens) (UniProt P08908); assay: Inhibition of human 5-HT1A receptor at 3 uM by radioligand binding assay
Rattus norvegicus = species on record: Rattus norvegicus; assay: Inhibition of rat N-type calcium channel at 3 uM by radioligand binding assay
[2] = molecular target: Adenosine receptor A1 (Homo sapiens) (UniProt P30542); assay: Inhibition of human adenosine A1 receptor at 3 uM by radioligand binding assay
[3] = molecular target: T1, Muscarinic acetylcholine receptor M2 (Homo sapiens) (UniProt P08172); assay: Intrinsic activity at muscarinic M2 receptor (unknown origin) at 10 uM by calcium mobilization assay; format: functional
T1 sequence (whole entry): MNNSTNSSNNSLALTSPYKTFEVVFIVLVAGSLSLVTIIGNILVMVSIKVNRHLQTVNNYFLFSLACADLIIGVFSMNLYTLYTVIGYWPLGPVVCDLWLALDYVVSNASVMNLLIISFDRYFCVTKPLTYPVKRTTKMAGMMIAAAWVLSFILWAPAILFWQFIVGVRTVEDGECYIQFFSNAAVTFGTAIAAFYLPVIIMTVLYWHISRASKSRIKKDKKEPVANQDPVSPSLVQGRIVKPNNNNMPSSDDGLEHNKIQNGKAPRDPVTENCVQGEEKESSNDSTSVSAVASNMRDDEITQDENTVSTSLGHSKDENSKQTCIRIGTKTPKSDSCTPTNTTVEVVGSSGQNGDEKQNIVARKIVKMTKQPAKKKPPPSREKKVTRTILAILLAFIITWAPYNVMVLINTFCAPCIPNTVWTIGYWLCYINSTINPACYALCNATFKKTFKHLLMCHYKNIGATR

[4] = molecular target: L-type calcium channel, benzothiazepine binding site (Rattus norvegicus, UniProt P22002+P27732+Q02485); assay: Inhibition of rat L-type calcium channel benzothiazepine binding site at 3 uM by radioligand binding assay; format: protein assay
[5] = molecular target: Mu-type opioid receptor (Homo sapiens) (UniProt P35372); assay: Inhibition of human mu opioid receptor at 3 uM by radioligand binding assay
[6] = molecular target: Sigma non-opioid intracellular receptor 1 (Homo sapiens) (UniProt Q99720); assay: Inhibition of human sigma1 receptor at 3 uM by radioligand binding assay
[7] = molecular target: Histamine H1 receptor (Homo sapiens) (UniProt P35367); assay: Inhibition of human histamine H1 receptor at 3 uM by radioligand binding assay
[8] = molecular target: Delta-type opioid receptor (Homo sapiens) (UniProt P41143); assay: Inhibition of human delta opioid receptor at 3 uM by radioligand binding assay
[9] = molecular target: 5-hydroxytryptamine receptor 3A (Homo sapiens) (UniProt P46098); assay: Inhibition of human 5-HT3 receptor at 3 uM by radioligand binding assay
[10] = molecular target: Alpha-1D adrenergic receptor (Homo sapiens) (UniProt P25100); assay: Inhibition of human alpha1D adrenergic receptor at 3 uM by radioligand binding assay
[11] = molecular target: Glucocorticoid receptor (Homo sapiens) (UniProt P04150); assay: Inhibition of human glucocortlicoid receptor at 3 uM by radioligand binding assay
[12] = molecular target: Glutamate NMDA receptor (Rattus norvegicus) (UniProt P35439+Q00959+Q00960+Q00961+Q62645+Q8VHN2+Q9R1M7); assay: Inhibition of rat NMDA receptor phencyclidine binding site at 3 uM by radioligand binding assay; format: protein-complex assay
[13] = Cmax in rat at 0.25 mg/kg, iv and 2.5 mg/kg, po; format: ADME, organism-based; conditions: in vivo
[14] = Half life in rat at 0.25 mg/kg, iv and 2.5 mg/kg, po; format: ADME, organism-based; conditions: in vivo
[15] = molecular target: T2, Muscarinic acetylcholine receptor M1 (Homo sapiens) (UniProt P11229); assay: Intrinsic activity at muscarinic M1 receptor (unknown origin) by calcium mobilization assay; format: functional
T2 sequence (whole entry): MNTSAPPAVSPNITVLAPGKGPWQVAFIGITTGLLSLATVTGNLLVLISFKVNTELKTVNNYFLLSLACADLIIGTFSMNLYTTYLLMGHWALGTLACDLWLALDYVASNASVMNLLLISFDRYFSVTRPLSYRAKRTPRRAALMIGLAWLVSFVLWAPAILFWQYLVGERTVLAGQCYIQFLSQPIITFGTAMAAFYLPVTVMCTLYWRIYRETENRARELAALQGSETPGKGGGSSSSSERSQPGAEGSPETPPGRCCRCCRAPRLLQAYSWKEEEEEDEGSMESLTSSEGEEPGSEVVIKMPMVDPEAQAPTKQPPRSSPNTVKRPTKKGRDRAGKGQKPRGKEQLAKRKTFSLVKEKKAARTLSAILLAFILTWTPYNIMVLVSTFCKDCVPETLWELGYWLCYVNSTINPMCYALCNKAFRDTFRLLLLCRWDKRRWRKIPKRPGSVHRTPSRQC

[16] = molecular target: Adrenergic receptor alpha-1 (Rattus norvegicus) (UniProt P15823+P23944+P43140); assay: Inhibition of rat alpha1 adrenergic receptor at 3 uM by radioligand binding assay
[17] = molecular target: T2, Muscarinic acetylcholine receptor M1 (Homo sapiens); assay: Agonist activity at muscarinic M1 receptor (unknown origin) at 0.3 uM by calcium mobilization assay; format: functional
[18] = Cmax in monkey at 0.25 mg/kg, iv and 2.5 mg/kg, po; format: ADME, organism-based, Macaca mulatta; conditions: rhesus monkey, in vivo
[19] = molecular target: Neuronal acetylcholine receptor subunit alpha-7 (Rattus norvegicus) (UniProt Q05941); assay: Inhibition of rat nAChR alpha7 at 3 uM by methyllycaconitine binding assay
[20] = molecular target: Somatostatin receptor type 4 (Homo sapiens) (UniProt P31391); assay: Inhibition of human SST4 receptor at 3 uM by radioligand binding assay
[21] = molecular target: D(4) dopamine receptor (Homo sapiens) (UniProt P21917); assay: Inhibition of human dopamine D4.2 receptor at 3 uM by radioligand binding assay
[22] = Volume of distribution at steady state in rat at 0.25 mg/kg, iv and 2.5 mg/kg, po; format: ADME, organism-based; conditions: in vivo, read-out: Vdss
[23] = molecular target: Sodium-dependent dopamine transporter (Homo sapiens) (UniProt Q01959); assay: Inhibition of human DAT at 3 uM by radioligand binding assay
[24] = molecular target: Cannabinoid receptor 1 (Homo sapiens) (UniProt P21554); assay: Inhibition of human CB1 receptor at 3 uM by radioligand binding assay
[25] = molecular target: Endothelin-1 receptor (Homo sapiens) (UniProt P25101); assay: Inhibition of human ETA receptor at 3 uM by radioligand binding assay
[26] = molecular target: Muscarinic acetylcholine receptor M4 (Homo sapiens, UniProt P08173); assay: Agonist activity at muscarinic M4 receptor (unknown origin) by calcium mobilization assay; format: functional
[27] = molecular target: Sodium-dependent serotonin transporter (Homo sapiens) (UniProt P31645); assay: Inhibition of human SERT at 3 uM by radioligand binding assay
[28] = molecular target: Acetylcholinesterase (Homo sapiens) (UniProt P22303); assay: Inhibition of human acetylcholinesterase at 3 uM by radioligand binding assay
[29] = molecular target: Voltage-gated inwardly rectifying potassium channel KCNH2 (Homo sapiens, UniProt Q12809); assay: Inhibition of human ERG channel
Chain of Voltage-gated inwardly rectifying potassium channel KCNH2 (Q12809 whole entry): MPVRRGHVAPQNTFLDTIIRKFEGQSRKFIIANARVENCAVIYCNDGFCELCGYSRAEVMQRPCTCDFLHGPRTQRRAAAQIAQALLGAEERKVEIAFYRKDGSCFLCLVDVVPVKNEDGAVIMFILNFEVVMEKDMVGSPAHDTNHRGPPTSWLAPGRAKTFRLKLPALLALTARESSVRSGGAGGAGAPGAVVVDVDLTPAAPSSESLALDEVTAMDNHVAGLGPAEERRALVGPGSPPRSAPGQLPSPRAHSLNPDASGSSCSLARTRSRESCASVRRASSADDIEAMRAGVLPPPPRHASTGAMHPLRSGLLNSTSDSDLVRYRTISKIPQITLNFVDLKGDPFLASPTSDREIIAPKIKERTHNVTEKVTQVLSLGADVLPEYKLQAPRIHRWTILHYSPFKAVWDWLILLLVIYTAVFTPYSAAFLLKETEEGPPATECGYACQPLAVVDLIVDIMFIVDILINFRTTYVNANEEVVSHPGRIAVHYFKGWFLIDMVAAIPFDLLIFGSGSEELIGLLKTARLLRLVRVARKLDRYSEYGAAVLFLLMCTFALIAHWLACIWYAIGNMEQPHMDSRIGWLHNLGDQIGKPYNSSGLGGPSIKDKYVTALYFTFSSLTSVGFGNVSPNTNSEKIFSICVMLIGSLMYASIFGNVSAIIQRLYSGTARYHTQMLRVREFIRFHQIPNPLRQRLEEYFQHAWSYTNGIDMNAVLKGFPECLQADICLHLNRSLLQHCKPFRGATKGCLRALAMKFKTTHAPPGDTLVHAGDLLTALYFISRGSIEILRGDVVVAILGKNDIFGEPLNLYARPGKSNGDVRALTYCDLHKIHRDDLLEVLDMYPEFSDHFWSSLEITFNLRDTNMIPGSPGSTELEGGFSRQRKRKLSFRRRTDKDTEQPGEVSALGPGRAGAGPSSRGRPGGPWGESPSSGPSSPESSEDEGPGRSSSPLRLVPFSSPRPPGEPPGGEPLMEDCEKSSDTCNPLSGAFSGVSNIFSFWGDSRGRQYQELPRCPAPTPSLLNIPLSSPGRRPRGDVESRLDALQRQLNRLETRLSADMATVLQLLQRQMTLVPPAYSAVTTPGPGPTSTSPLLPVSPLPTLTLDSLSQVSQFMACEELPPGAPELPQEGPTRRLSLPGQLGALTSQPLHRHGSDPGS

Chain of Sodium-dependent dopamine transporter (Homo sapiens) (Q01959 whole entry): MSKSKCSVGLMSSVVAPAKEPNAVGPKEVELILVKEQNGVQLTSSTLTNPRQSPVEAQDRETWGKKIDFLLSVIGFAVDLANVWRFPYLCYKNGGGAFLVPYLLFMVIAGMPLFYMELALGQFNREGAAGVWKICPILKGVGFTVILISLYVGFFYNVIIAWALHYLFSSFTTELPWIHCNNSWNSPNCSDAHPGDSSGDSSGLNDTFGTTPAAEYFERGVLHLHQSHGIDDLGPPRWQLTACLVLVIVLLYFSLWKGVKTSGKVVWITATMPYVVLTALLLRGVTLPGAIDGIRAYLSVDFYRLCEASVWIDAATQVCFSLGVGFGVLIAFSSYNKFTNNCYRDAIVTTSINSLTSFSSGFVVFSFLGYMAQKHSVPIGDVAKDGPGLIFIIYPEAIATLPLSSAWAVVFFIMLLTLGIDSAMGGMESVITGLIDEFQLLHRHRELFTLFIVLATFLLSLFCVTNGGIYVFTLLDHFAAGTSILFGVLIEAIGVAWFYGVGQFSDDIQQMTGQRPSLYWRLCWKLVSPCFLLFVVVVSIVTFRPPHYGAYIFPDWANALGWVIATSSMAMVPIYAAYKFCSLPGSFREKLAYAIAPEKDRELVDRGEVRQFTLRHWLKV
Chain of 5-hydroxytryptamine receptor 3A (Homo sapiens) (P46098 whole entry): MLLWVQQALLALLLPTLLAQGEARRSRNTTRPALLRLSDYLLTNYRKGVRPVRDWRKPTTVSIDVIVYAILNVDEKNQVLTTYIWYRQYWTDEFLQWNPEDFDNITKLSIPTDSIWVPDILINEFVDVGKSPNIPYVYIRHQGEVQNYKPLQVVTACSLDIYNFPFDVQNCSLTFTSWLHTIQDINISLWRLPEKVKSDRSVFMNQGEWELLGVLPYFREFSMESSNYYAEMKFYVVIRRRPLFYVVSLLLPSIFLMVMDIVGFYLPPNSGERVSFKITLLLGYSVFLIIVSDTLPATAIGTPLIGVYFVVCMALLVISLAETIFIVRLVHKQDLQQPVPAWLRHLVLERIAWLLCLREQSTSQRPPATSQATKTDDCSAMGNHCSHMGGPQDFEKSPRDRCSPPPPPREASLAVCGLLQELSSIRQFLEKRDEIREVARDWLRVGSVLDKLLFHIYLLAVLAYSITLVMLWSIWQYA
Chain of Delta-type opioid receptor (Homo sapiens) (P41143 whole entry): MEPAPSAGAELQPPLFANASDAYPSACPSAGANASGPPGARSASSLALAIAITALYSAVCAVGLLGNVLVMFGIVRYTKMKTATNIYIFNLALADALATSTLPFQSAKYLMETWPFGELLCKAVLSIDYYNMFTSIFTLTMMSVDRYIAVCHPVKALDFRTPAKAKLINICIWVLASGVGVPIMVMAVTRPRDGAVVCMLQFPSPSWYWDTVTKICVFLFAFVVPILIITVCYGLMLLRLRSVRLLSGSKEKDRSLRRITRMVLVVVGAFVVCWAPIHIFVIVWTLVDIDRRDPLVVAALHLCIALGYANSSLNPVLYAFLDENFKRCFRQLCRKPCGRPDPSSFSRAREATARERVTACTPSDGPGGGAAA
Chain of Neuronal acetylcholine receptor subunit alpha-7 (Rattus norvegicus) (Q05941 whole entry): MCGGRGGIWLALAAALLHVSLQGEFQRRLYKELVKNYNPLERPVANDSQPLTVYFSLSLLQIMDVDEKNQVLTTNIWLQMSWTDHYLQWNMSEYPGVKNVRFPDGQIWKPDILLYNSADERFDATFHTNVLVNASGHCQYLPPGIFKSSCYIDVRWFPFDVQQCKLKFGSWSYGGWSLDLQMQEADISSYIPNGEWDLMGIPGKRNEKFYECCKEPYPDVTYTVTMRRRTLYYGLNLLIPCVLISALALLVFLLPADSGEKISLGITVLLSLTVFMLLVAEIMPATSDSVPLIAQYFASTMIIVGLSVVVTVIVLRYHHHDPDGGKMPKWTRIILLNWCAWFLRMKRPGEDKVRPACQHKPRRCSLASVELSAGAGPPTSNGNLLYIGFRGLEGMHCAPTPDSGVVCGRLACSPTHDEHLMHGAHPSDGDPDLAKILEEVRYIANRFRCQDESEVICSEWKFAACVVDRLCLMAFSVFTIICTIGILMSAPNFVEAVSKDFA
Chain of Glucocorticoid receptor (Homo sapiens) (P04150 whole entry): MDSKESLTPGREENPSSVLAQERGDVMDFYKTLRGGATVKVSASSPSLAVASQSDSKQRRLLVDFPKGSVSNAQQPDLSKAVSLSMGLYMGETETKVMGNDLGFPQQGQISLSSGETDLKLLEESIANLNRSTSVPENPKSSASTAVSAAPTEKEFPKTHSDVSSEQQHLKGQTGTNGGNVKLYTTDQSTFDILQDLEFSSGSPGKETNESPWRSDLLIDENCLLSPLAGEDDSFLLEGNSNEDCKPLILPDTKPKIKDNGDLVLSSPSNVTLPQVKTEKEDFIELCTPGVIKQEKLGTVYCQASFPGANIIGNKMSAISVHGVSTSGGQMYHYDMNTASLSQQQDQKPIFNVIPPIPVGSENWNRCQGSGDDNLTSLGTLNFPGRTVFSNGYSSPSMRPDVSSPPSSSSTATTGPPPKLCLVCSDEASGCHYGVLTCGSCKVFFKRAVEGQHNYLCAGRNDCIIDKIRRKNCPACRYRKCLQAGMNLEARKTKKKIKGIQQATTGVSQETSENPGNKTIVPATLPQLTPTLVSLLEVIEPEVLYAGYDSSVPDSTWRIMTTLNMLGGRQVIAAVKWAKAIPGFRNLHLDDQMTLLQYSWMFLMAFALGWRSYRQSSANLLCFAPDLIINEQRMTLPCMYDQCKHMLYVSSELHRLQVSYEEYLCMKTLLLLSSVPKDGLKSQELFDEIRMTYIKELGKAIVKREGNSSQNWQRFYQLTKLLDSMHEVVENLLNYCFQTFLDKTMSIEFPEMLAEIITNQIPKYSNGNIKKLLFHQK
Chain of Somatostatin receptor type 4 (Homo sapiens) (P31391 whole entry): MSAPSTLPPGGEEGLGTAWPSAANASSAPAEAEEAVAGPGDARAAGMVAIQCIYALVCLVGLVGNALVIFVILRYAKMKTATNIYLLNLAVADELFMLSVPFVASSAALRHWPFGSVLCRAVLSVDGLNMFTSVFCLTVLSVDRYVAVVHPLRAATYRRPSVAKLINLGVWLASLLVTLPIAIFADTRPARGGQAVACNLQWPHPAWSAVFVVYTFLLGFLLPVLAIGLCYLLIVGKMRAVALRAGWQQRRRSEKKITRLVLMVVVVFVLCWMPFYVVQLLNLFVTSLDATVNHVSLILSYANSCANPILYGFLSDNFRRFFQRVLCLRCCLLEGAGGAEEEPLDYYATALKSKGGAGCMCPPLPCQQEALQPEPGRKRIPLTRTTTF
Chain of Sigma non-opioid intracellular receptor 1 (Homo sapiens) (Q99720 whole entry): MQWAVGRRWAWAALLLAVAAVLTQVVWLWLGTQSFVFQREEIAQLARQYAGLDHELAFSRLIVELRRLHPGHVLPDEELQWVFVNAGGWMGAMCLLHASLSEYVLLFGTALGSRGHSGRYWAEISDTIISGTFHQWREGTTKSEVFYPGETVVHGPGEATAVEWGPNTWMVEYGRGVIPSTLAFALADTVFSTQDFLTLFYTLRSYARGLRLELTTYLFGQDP
Chain of Adenosine receptor A1 (Homo sapiens) (P30542 whole entry): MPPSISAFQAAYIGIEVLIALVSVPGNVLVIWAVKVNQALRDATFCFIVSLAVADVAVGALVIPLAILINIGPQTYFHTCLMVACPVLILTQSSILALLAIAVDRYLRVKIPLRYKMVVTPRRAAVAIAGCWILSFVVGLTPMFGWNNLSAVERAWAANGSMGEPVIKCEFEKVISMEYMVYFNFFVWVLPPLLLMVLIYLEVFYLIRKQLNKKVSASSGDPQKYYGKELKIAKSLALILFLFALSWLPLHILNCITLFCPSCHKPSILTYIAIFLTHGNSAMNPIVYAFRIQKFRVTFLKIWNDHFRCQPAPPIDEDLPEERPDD

CCOC(=O)N1CCC(CN2CCC3(CC2)CN(C(=O)N(C)C)c2ncccc23)CC1.O=C(O)/C=C/C(=O)O
inhibition [1]: -6%
inhibition (Rattus norvegicus): 4%
inhibition [2]: 15%
Intrinsic activity [3]: 5%
inhibition at 3 µM [4]: -21%
inhibition [5]: 3%
inhibition [6]: 57%
inhibition [7]: -2%
inhibition [8]: -1%
inhibition [9]: -10%
inhibition [10]: 10%
inhibition [11]: 15%
inhibition [12]: 0%
Cmax [13]: 207 ng/mL
half-life [14]: 54 min
Intrinsic activity [15]: 76%
inhibition [16]: 21%
Activity [17]: 76%
Cmax [18]: 30.7 ng/mL
inhibition [19]: 13%
inhibition [20]: -10%
inhibition [21]: 4%
Vd [22]: 1.8 L/kg
inhibition [23]: -2%
inhibition [24]: 11%
inhibition [25]: 10%
pEC50 [26]: 7.33
inhibition [27]: 3%
inhibition [28]: 5%
pIC50 [29]: < 5.00
